Experimental data from US20150284331A1 (priority 2012, published 2015).

How the values were obtained:
[1] = target: T1, acetylcholinesterase (Rattus norvegicus, UniProt P37136); assay: biochemical; assay type: biochemical; settings: rat cortex enzyme; for acetylcholinesterase inhibitory activity inhibition ratio (%): final concentration 4×10−5 mol/L; for IC50: read-out: acetylcholinesterase inhibitory activity IC50 (nmol)
T1 construct: Acetylcholinesterase: rat cortex; from tissue; host or cells: rat cortex
T1 sequence (P37136 32-614): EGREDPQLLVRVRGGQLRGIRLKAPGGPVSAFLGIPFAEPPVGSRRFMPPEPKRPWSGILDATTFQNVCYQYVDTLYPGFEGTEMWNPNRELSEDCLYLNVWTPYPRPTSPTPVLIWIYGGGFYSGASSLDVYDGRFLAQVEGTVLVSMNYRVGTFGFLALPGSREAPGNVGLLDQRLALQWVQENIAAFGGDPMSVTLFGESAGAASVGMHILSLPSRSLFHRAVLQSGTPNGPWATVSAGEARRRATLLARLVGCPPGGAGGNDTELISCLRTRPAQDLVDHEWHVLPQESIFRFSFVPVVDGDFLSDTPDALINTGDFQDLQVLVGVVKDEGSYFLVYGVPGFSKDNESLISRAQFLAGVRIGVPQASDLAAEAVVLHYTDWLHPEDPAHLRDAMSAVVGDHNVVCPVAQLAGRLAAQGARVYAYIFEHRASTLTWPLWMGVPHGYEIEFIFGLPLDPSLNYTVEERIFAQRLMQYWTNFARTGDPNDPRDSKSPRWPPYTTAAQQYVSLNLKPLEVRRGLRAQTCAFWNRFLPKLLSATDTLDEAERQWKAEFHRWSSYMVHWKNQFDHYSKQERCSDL
Protocol: (§1) Sample processing: All samples were formulated as 10-2 mol/L solution by using 100% DMSO. 10-2 mol/L solution was used in microdetermination. 1 μL was taken to use in single tube experiment.
(§2) Solvent control: 0.4% DMSO was used in microdetermination. The inhibition ratio of the sample was obtained wherein the effect of solvent was deducted.
Acetylcholinesterase: rat cortex

[2] = target: T2, butyrylcholinesterase (Rattus norvegicus, UniProt Q9JKC1); assay: inhibition of butyrylcholinesterase (rat serum); assay type: biochemical; settings: rat serum enzyme; final concentration 4×10−5 mol/L
T2 construct: Butyrylcholinesterase: rat serum; from tissue; host or cells: rat serum
Protocol: as §1, §2
Butyrylcholinesterase: rat serum

T2 sequence (Q9JKC1 24-597): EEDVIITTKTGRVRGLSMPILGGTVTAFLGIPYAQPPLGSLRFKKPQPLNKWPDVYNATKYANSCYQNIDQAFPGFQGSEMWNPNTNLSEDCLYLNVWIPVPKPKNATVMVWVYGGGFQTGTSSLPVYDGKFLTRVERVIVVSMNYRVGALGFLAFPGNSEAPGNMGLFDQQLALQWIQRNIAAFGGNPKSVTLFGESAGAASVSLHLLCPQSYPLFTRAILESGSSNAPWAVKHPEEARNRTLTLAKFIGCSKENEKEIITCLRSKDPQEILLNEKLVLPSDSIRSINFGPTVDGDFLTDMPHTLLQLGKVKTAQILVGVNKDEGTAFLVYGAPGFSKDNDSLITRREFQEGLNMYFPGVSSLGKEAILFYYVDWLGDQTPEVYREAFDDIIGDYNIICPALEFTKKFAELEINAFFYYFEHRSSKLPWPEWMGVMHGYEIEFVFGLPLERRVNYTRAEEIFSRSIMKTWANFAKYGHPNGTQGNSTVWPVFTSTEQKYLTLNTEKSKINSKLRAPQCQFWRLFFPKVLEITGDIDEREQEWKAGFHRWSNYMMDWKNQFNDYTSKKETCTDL

Compound	acetylcholinesterase inhibitory activity inhibition ratio (%) [1] [%]	IC50 [1] [nM]	butyrylcholinesterase inhibitory activity inhibition ratio (%) [2] [%]
COc1cc2c(cc1OC)C(=O)C(CC1(F)CCN(Cc3ccc([N+](=O)[O-])cc3)CC1)C2 (stereo not shown) [DC1, 2-((4-fluoro-1-(4-nitrobenzyl)piperidin-4-yl)methyl)-5,6-dimethoxy-2,3-dihydro-1H-inden-1-one]	72.85	8780	46.68
COc1cc2c(cc1OC)C(=O)C(CC1(F)CCN(Cc3ccccc3C#N)CC1)C2 (stereo not shown) [DC3, 2-((4-((5,6-dimethoxy-1-oxo-2,3-dihydro-1H-inden-2-yl)methyl)-4-fluoropiperidin-1-yl)methyl)benzonitrile]	80.04		36.42
COc1cc2c(cc1OC)C(=O)C(CC1(F)CCN(Cc3cc(C)cc(C)c3)CC1)C2 (stereo not shown) [DC4, 2-((1-(3,5-dimethylbenzyl)-4-fluoropiperidin-4-yl)methyl)-5,6-dimethoxy-2,3-dihydro-1H-inden-1-one]	75.65		72.82
COc1cc2c(cc1OC)C(=O)C(CC1(F)CCN(Cc3ccc(F)cc3)CC1)C2 (stereo not shown) [DC5, 2-((4-fluoro-1-(4-fluorobenzyl)piperidin-4-yl)methyl)-5,6-dimethoxy-2,3-dihydro-1H-inden-1-one]	82.04	2.67	0.00
COc1cc2c(cc1OC)C(=O)C(CC1(F)CCN(Cc3ccc(OC(F)(F)F)cc3)CC1)C2 (stereo not shown) [DC6, 2-((4-fluoro-1-(4-(trifluoromethoxy)benzyl)piperidin-4-yl)methyl)-5,6-dimethoxy-2,3-dihydro-1H-inden-1-one]	51.7		1.24
COc1cc2c(cc1OC)C(=O)C(CC1(F)CCN(Cc3ccc(C(C)(C)C)cc3)CC1)C2 (stereo not shown) [DC7, 2-((1-(4-(tert-butyl)benzyl)-4-fluoropiperidin-4-yl)methyl)-5,6-dimethoxy-2,3-dihydro-1H-inden-1-one]	69.06		8.40
COc1cc2c(cc1OC)C(=O)C(CC1(F)CCN(Cc3c(F)cccc3[N+](=O)[O-])CC1)C2 (stereo not shown) [DC8, 2-((4-fluoro-1-(2-fluoro-6-nitrobenzyl)piperidin-4-yl)methyl)-5,6-dimethoxy-2,3-dihydro-1H-inden-1-one]	76.05	27100	49.48
COc1cc2c(cc1OC)C(=O)C(CC1(F)CCN(Cc3cc4c(cc3Br)OCO4)CC1)C2 (stereo not shown) [DC9, 2-((1-((6-bromobenzo[d][1,3]dioxol-5-yl)methyl)-4-fluoropiperidin-4-yl)methyl)-5,6-dimethoxy-2,3-dihydro-1H-inden-1-one]	97.34		33.79
COc1cc2c(cc1OC)C(=O)C(CC1(F)CCN(Cc3ccc(F)cc3F)CC1)C2 (stereo not shown) [DC10, 2-((1-(2,4-difluorobenzyl)-4-fluoropiperidin-4-yl)methyl)-5,6-dimethoxy-2,3-dihydro-1H-inden-1-one]	97.34		83.11
COc1cc2c(cc1OC)C(=O)C(CC1(F)CCN(Cc3cccc(Br)c3)CC1)C2 (stereo not shown) [DC11, 2-((1-(3-bromobenzyl)-4-fluoropiperidin-4-yl)methyl)-5,6-dimethoxy-2,3-dihydro-1H-inden-1-one]	84.63	4.33	12.76
COc1cc2c(cc1OC)C(=O)C(CC1(F)CCN(Cc3ccc(F)c(F)c3F)CC1)C2 (stereo not shown) [DC12, 2-((4-fluoro-1-(2,3,4-trifluorobenzyl)piperidin-4-yl)methyl)-5,6-dimethoxy-2,3-dihydro-1H-inden-1-one]	98.08		38.15
COc1cc2c(cc1OC)C(=O)C(CC1(F)CCN(Cc3cccc(C#N)c3)CC1)C2 (stereo not shown) [DC13, 3-((4-((5,6-dimethoxy-1-oxo-2,3-dihydro-1H-inden-2-yl)methyl)-4-fluoropiperidin-1-yl)methyl)benzonitrile]	97.19		29.25
COc1cc2c(cc1OC)C(=O)C(CC1(F)CCN(Cc3ccccc3Br)CC1)C2 (stereo not shown) [DC14, 2-((1-(2-bromobenzyl)-4-fluoropiperidin-4-yl)methyl)-5,6-dimethoxy-2,3-dihydro-1H-inden-1-one]	85.03	4	54.77
COc1cc2c(cc1OC)C(=O)C(CC1(F)CCN(Cc3c(F)c(F)c(F)c(F)c3F)CC1)C2 (stereo not shown) [DC28, 2-((4-fluoro-1-((perfluorophenyl)methyl)piperidin-4-yl)methyl)-5,6-dimethoxy-2,3-dihydro-1H-inden-1-one]	96.5		
COc1cc2c(cc1OC)C(=O)C(CC1(F)CC3CCC(C1)N3Cc1ccc([N+](=O)[O-])cc1)C2 (stereo not shown) [DC41, 2-((3-fluoro-8-(4-nitrobenzyl)-8-azabicyclo[3.2.1]octan-3-yl)methyl)-5,6-dimethoxy-2,3-dihydro-1H-inden-1-one]	56.8		
COc1cc2c(cc1OC)C(=O)C(CC1(F)CC3CCC(C1)N3Cc1ccccc1C#N)C2 (stereo not shown) [DC43, 2-((3-((5,6-dimethoxy-1-oxo-2,3-dihydro-1H-inden-2-yl)methyl)-3-fluoro-8-azabicyclo[3.2.1]octan-8-yl)methyl)benzonitrile]	88.9		
COc1cc2c(cc1OC)C(=O)C(CC1(F)CC3CCC(C1)N3Cc1c(F)cccc1[N+](=O)[O-])C2 (stereo not shown) [DC48, 2-((3-fluoro-8-(2-fluoro-6-nitrobenzyl)-8-azabicyclo[3.2.1]octan-3-yl)methyl)-5,6-dimethoxy-2,3-dihydro-1H-inden-1-one]	77.3		
COc1cc2c(cc1OC)C(=O)C(CC1(F)CC3CCC(C1)N3Cc1ccccc1Br)C2 (stereo not shown) [DC54, 2-((8-(2-bromobenzyl)-3-fluoro-8-azabicyclo[3.2.1]octan-3-yl)methyl)-5,6-dimethoxy-2,3-dihydro-1H-inden-1-one]	90.3		
COc1cc2c(cc1OC)C(=O)C(CC1(F)CC3CCC(C1)N3Cc1ccc(-c3ccccc3)cc1)C2 (stereo not shown) [DC76, 2-((8-([1,1′-biphenyl]-4-ylmethyl)-3-fluoro-8-azabicyclo[3.2.1]octan-3-yl)methyl)-5,6-dimethoxy-2,3-dihydro-1H-inden-1-one]	85.3		
